Where two headings read alike, the source gives them in different places.
Key:
[1] = assay type: in vivo, mice
Description: The principle of this test consists in chronometering the duration for which mice maintain itself on a rod rotating at a constant speed. Compounds which are endowed with sedative or myorelaxing or inhibitory of the motor coordination, will induce a precocious fall, before 120 seconds which are the maximals period of study. […] This test takes place 30 mn and 60 mn after administration. […] Chlorpromazine, major neuroleptic used as positive standard in the Rota-rod Test, caused the fall before the time granted, of 90% of the mice from the dosage of 4 mg/kg by intraperitoneal way.

[2] = Irwin's test (modified, Morpurgo), behaviour in mice; assay type: in vivo; details: oral
Experimental: The Irwin's test, modified according to Morpurgo's Technique (1971) has been carried out to search optional alterations of the spontaneous behaviour under the action of the compound of example III or of a H1-antihistaminic of the first generation Dexchloropheniramine, known to induce some effects of drowsiness in the person. After administration by oral way, the mice have been kept under observation for 30 mn then have submitted to a seri. of simple test of behavioural screening after 30 mn, 3 hours and 24 hours.

[3] = biological target: T1, Muscarinic M2 (Rattus norvegicus, UniProt P10980); experiment: biochemical; assay type: binding
T1 sequence (P10980 1-466): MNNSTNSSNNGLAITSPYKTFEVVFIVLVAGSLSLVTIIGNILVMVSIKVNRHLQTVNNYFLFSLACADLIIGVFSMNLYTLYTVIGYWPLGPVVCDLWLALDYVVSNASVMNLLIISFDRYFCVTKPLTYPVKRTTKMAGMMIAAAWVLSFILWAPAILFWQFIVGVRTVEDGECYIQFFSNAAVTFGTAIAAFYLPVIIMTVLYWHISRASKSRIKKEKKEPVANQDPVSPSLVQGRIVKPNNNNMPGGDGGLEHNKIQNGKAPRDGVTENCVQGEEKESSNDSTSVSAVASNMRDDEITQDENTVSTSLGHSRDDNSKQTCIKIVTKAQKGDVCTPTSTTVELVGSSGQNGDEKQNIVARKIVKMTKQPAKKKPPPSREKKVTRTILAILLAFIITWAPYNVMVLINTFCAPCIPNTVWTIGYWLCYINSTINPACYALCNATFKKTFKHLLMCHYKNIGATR

[4] = biological target: T2, Sigma receptor (Rattus norvegicus, UniProt Q9R0C9); experiment: Affinity for Sigma receptors ([3H](+)3-PPP); assay type: binding
T2 construct: membranar receptors of various rats organs; from tissue; host or cells: rat whole brain
T2 sequence (Q9R0C9 whole entry): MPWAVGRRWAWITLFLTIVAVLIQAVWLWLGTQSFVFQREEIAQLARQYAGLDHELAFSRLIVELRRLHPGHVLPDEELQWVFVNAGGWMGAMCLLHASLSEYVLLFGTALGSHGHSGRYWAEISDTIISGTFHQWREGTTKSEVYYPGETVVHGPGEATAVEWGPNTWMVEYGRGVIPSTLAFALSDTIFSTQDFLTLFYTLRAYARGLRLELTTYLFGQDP
Experimental: (§1) A broad range of membranar receptors of various rats organs has been tested according to the same principle than the H1 receptor under the following conditions which are summarized:
Sigma receptors: whole brain, 2 hours at 22° C. in 50 mM TRIS-ClH buffer (pH 8) against 2 nM of [^3 H] (+)3-PPP (3-(3-hydroxyphenyl)N-(1-propyl) piperidine).
(§2) The more weak is the CI50, the more high is the affinity.

[5] = tested on: Central sites to benzodiazepines; experiment: Affinity for central sites to benzodiazepines ([3H]-Flunitrazepam); assay type: binding; details: rat whole brain; 0.3 nM [3H]-Flunitrazepam, pH 7.1; read-out: CI50 (the source's name)
Experimental: Central sites to benzodiazepines: whole brain, 90 mn at 0° C. in 50 mM TRIS-ClH buffer (pH 7.1) against 0.3 nM [^3 H]-Flunitrazepam.

[6] = biological target: T3, Peripheral sites to the benzodiazepines (Rattus norvegicus, UniProt P16257); experiment: Affinity for peripheral sites to benzodiazepines ([3H]PK 11195); assay type: binding
T3 construct: membranar receptors of various rats organs; from tissue; host or cells: rat cortex
Experimental: as §1
Peripheral sites to the benzodiazepines: Cortex 90 mn at 25° C. in 90 mM PO4 HNa2 /PO4 H2 K buffer, 81 mM ClNa and […] (pH 7.4) against 1 nM [^3 H]PK 11195.
as §2

[7] = biological target: T4, Adenosine A1 (Rattus norvegicus, UniProt P25099); experiment: Affinity for adenosine A1 ([3H]cyclohexyladenosine); assay type: binding
T4 construct: membranar receptors of various rats organs; from tissue; host or cells: rat cortex
T4 sequence (P25099 1-326): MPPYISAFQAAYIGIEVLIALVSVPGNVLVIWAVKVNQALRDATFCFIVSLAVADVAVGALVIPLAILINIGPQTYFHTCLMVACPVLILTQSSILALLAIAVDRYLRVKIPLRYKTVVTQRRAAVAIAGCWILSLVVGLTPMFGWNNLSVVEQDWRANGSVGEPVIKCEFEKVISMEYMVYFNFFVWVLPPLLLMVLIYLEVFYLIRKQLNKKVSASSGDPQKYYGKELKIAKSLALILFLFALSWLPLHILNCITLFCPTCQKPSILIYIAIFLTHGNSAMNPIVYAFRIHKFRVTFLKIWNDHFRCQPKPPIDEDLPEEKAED
Experimental: as §1
Adenosine A1: cortex, 90 mn at 25° C. in 50 mM TRIS-ClH buffer (pH 7.7) against 1 nMol of [^3 H] cyclohexyladenosine
as §2

[8] = biological target: T5, Adenosine A2 (Rattus norvegicus, UniProt P30543); experiment: Affinity for adenosine A2 ([3H]NECA); assay type: binding
T5 construct: membranar receptors of various rats organs; from tissue; host or cells: rat striatum
T5 sequence (P30543 whole entry): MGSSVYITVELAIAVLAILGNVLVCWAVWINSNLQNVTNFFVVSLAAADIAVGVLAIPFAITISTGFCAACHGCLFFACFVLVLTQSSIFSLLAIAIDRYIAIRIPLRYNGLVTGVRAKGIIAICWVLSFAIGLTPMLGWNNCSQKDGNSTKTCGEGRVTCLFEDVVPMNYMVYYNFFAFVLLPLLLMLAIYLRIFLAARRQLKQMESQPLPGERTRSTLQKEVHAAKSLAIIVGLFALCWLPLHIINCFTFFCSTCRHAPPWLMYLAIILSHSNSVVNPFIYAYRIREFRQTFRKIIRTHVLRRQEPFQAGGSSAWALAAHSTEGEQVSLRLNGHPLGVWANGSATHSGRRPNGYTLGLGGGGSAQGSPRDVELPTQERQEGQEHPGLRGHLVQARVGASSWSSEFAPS
Experimental: as §1
Adenosine A2: striatum 60 mn at 25° in 50 mM TRIS-ClH buffer (pH 7.7) added with 50 nM cyclopentyladenosine, 10 mM Cl2 Mg and 0.1 Unit/ml […] against 4 nM of [^3 H] NECA (5'-N-ethylcarboxamido adenosine).
as §2

[9] = tested on: GABAA; experiment: Affinity for GABAA ([3H]Muscimol); assay type: binding; details: rat whole brain; 5 nM [3H]Muscimol, pH 7.2; read-out: CI50 (the source's name)
Experimental: GABAA : whole brain 20 mn at 4° C., in 50 nM TRIS-ClH buffer (pH 7.2) added to 0.5%. TRITON X-100, against 5 nM [^3 H] Muscimol.

[10] = biological target: T6, GABAB (Rattus norvegicus, UniProt Q9Z0U4); experiment: Affinity for GABAB ([3H]Baclofen); assay type: binding
T6 construct: membranar receptors of various rats organs; from tissue; host or cells: rat cerebellum
T6 sequence (Q9Z0U4 17-960 limits assumed): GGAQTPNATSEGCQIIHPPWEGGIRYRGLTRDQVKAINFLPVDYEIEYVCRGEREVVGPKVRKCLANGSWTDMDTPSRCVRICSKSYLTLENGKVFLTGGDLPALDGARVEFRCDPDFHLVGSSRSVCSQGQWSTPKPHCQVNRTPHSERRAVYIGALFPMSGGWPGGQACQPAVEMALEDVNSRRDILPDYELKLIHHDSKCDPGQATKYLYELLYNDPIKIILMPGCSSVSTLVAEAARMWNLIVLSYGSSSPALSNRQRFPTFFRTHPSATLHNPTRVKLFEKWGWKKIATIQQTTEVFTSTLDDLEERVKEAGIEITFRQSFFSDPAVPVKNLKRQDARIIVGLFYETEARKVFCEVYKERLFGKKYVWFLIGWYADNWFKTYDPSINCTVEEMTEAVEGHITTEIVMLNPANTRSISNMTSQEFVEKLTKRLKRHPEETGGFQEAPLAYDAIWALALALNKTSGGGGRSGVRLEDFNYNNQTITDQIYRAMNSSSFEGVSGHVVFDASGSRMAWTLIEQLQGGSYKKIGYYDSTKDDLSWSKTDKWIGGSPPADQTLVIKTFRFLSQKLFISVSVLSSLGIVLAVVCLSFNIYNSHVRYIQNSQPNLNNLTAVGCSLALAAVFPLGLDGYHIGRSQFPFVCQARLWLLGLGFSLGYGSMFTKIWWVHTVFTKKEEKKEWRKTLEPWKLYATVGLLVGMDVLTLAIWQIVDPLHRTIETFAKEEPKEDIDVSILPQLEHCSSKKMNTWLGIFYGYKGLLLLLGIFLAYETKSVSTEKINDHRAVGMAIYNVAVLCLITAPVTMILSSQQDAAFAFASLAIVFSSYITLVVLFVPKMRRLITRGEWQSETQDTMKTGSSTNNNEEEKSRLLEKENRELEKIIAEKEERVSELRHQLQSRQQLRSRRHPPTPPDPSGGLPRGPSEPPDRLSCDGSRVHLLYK
T6 sequence (O88871 41-940 partner): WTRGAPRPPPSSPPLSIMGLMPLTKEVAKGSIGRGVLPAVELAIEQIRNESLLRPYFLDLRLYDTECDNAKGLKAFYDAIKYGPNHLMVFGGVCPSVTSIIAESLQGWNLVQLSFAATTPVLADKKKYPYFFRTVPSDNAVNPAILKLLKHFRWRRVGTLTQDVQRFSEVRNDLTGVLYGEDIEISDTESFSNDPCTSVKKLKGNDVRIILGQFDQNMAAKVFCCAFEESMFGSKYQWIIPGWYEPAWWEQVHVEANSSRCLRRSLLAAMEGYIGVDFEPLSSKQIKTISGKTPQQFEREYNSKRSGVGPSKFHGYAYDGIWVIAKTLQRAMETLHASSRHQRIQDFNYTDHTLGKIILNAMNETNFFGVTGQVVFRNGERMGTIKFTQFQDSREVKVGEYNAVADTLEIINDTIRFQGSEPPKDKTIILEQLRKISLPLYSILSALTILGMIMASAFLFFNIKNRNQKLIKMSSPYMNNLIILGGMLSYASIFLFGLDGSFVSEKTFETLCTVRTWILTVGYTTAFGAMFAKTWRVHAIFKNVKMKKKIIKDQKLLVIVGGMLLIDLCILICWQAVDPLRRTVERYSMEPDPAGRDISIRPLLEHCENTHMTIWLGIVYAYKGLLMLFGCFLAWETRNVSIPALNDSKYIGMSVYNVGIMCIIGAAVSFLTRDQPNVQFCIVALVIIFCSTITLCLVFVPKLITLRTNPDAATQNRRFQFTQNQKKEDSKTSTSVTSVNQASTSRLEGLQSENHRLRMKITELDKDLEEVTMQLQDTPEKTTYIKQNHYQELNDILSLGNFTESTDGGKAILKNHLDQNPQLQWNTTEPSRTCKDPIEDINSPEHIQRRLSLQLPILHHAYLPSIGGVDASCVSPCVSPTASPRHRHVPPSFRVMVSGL
Experimental: as §1
GABAB : Cerebellum, 10 mn at 22° C. in 50 mM TRIS-ClH buffer (pH 7.4) added to 1.2 mM SO^4 Mg and 2.5 mM Cl2 Ca, against 20 nM of [^3 H] Baclofen.
as §2

[11] = tested on: bronchospasm due to histamine; experiment: Bronchospasm to histamine aerosol in guinea pigs, intraperitoneal; assay type: in vivo, guinea pig; details: for ED50: Cavia porcellus, ip, 0.5 h, read-out: ED50 (efficient dosage at 50%) against histamine bronchospasm
Experimental: Inhalating an aerosol at 1%, of histamine (aqeuous solution in distilled water, nebulization with a apparatus HOSPITAK) causes in the guinea pigs, a bronchospasm which leads with immobilization of the animals on their own side. The time needed for the animals to lie down is measured for 5 minutes maximum.

[12] = tested on: bronchospasm due to histamine; experiment: Bronchospasm to histamine aerosol in guinea pigs, oral; assay type: in vivo, guinea pig; details: single dosage 10 mg/kg
Experimental: By oral way the single dosage of 10 mg/kg has been studied as a function of time.

[13] = biological target: T7, H1 receptors of rat cortexes (Rattus norvegicus, UniProt P31390); experiment: Affinity for H1 receptors, rat cortex membranes ([3H]Mepyramine); assay type: binding; details: read-out: CI50 (50% inhibitory concentration) on H1 receptors, 2 nM tritiated Mepyramine, 30 mn, 25° C., pH 7.4
T7 construct: membranar preparations of homogenates of rat cortexes or guinea pig lungs; from tissue; host or cells: rat cortex membranes
T7 sequence (P31390 whole entry): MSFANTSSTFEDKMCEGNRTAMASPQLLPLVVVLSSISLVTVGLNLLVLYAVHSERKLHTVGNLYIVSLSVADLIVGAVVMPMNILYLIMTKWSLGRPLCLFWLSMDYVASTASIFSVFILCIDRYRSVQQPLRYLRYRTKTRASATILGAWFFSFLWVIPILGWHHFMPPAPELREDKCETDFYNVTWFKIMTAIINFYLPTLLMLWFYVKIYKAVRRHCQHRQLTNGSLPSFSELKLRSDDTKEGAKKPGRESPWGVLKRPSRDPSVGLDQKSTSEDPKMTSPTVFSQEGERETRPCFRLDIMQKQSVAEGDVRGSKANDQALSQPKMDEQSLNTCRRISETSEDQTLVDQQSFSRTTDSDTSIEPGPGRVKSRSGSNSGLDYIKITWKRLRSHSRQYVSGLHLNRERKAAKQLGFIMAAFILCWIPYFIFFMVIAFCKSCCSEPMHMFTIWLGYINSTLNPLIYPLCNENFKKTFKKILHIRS
Experimental: (§3) After 30 mn at 25° C. and at pH 7.4, in a 50 mM TRIS-ClH buffer for the membrans of the cortex or a 0.5 M PO4 HNa2 /PO4 H2 K buffer for the lungs membrans, the residual bound fraction of tritiated ligand is counted by scintillation in a liquid medium after filtration on an apparatur of the Brandel's type and several washings.

[14] = biological target: T8, H1-receptors of guinea pigs lungs (Cavia porcellus, UniProt P31389); experiment: Affinity for H1 receptors, guinea pig lung membranes ([3H]Mepyramine); assay type: binding; details: read-out: CI50 (50% inhibitory concentration) on H1 receptors, 2 nM tritiated Mepyramine, 30 mn, 25° C., pH 7.4
T8 construct: membranar preparations of homogenates of rat cortexes or guinea pig lungs; from tissue; host or cells: guinea pig lung membranes
T8 sequence (P31389 whole entry): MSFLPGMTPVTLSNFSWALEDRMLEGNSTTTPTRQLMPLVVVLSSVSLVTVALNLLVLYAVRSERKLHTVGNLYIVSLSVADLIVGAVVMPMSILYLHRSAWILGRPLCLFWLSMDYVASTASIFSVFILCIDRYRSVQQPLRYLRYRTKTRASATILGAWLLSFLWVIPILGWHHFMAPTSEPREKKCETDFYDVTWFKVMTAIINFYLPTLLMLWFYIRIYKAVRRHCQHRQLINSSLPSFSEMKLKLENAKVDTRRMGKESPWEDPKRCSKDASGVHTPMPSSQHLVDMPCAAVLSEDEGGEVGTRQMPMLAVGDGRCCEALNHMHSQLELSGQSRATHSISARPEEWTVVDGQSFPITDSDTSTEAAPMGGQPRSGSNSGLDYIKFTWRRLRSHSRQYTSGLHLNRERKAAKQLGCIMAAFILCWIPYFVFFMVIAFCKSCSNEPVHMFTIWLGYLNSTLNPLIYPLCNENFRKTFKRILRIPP
Experimental: as §3

[15] = biological target: receptors of H1-type (Cavia porcellus, UniProt P31389); experiment: Histamine contraction of isolated ileon of guinea pig; details: for activity compared with Terfenadine on isolated ileon: difference not significant
receptors of H1-type, sequence (P31389 whole entry): as above
Description: The shift of the relationship between contracturing effect and concentration of histamine by the compound to be studied, stamps an anti-H1 activity.

[16] = biological target: T9, Muscarinic M1 (Rattus norvegicus, UniProt P08482); experiment: Affinity for muscarinic M1 ([3H]-pirenzepine); assay type: binding; details: rat cortex, striatum and hypocampus; 2 nM [3H]-pirenzepine, pH 7.4; read-out: CI50 (the source's name)
T9 construct: membranar receptors of various rats organs; from tissue; host or cells: rat cortex, striatum and hippocampus (pool)
T9 sequence (P08482 1-460): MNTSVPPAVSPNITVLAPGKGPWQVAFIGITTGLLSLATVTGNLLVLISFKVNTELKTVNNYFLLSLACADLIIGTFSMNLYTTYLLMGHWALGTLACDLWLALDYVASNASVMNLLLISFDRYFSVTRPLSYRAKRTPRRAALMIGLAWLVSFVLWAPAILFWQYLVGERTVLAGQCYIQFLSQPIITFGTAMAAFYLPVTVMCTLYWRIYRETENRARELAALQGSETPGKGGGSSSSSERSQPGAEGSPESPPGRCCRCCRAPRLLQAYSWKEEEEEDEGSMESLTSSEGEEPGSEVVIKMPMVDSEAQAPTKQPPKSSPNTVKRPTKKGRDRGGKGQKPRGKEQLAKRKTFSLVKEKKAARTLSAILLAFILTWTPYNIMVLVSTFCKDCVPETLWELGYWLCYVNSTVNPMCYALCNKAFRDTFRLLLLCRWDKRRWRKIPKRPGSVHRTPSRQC
Experimental: Muscarinic M1: pool of cortex, striatum and hypocampus, 60 mn at 25° C. in 10 mM PO4 HNa2 /PO4 H2 K buffer (pH 7.4) against 2 nM [^3 H]-pirenzepinc.

[17] = Single maximal non-toxic dosage by oral way in mice; assay type: in vivo; details: single oral dosage until 1000 mg/kg
Experimental: On the other side a mydriasis has been noticed after 3 hours. […] This is less fine than the Irvin's Test during which the animals are handled and interact with the experimenter.

[18] = rat cortex, 1 nM [3H]PK 11195, pH 7.4, read-out: CI50 (the source's name)
[19] = rat cortex, 1 nMol [3H]cyclohexyladenosine, pH 7.7, read-out: CI50 (the source's name)
[20] = rat striatum, 4 nM [3H]NECA, pH 7.7, read-out: CI50 (the source's name)
[21] = rat cerebellum, 20 nM [3H]Baclofen, pH 7.4, read-out: CI50 (the source's name)
[22] = intraperitoneal, 10 mg/kg, 30 minutes after administration

CN(C)CCCN1c2ccccc2Sc2ccc(Cl)cc21 [Chlorpromazine]
mice falling before the time granted (120 seconds) ([1]; intraperitoneal, from 4 mg/kg): 90%

CN(C)CC[C@@H](c1ccc(Cl)cc1)c1ccccn1 [Dexchlorpheniramine]
behavioural alteration (Irwin's test) ([2]; 100 mg/kg, 30 mn): a hyperactivity and a slight irritability
behavioural alteration (hyperactivity and slight irritability) ([2]; 100 mg/kg, 3 hours): persisting
behavioural alteration (hyperactivity and slight irritability) ([2]; 100 mg/kg, 24 hours): disappearing
ocular effect (Irwin's test) ([2]; 100 mg/kg, after 3 hours): mydriasis

COc1ccc(CN(CCN(C)C)c2ccccn2)cc1 [Mepyramine]
IC50 [3]: 3.5 µM
IC50 [4]: 0.59 µM
affinity for Sigma-receptor, times weaker than pentazocine ([4]; versus pentazocine): ~20 times weaker
IC50 [5]: > 10 µM
IC50 [6, 18]: > 10 µM
IC50 [7, 19]: > 10 µM
IC50 [8, 20]: > 10 µM
IC50 [9]: > 10 µM
IC50 [10, 21]: > 10 µM

CC(C)(C)c1ccc(C(O)CCCN2CCC(C(O)(c3ccccc3)c3ccccc3)CC2)cc1 (centres unmarked) [Terfenadine]
ED50 [11]: ~7 mg/kg
protection against histamine bronchospasm ([11]; intraperitoneal): poorly efficient
protection against histamine bronchospasm [11, 22]: total protection of all the animals
duration of protection against histamine bronchospasm [12]: 4 h
IC50 [3]: > 10 µM
IC50 [4]: > 10 µM
IC50 [5]: > 10 µM
IC50 [6]: > 10 µM
IC50 [7]: > 10 µM
IC50 [8]: > 10 µM
IC50 [9]: > 10 µM
IC50 [10]: > 10 µM

CC(C)(C)c1ccc(C(O)CCCN2CCN(c3nc4ccccc4n3Cc3ccc(F)cc3)CC2)cc1 (centres unmarked) [example III]
IC50 [13]: 1.1 µM
IC50 [14]: 2.7 µM
effect on histamine contraction of isolated ileon ([15]; 10^-5 M): partially irreversible inhibition
activity compared with Terfenadine on isolated ileon ([15]; 10^-5 M): the opposite seems to be produced
effect on histamine contraction of isolated ileon ([15]; 10^-6 M): inhibition of the competitive type
activity compared with Terfenadine on isolated ileon ([15]; 10^-6 M): slightly more active than Terfenadine
effect on histamine contraction of isolated ileon ([15]; 10^-7 M): no effect
ED50 ([11]; intraperitoneal, from regression curve): ~6.7 mg/kg
protection against histamine bronchospasm ([11]; intraperitoneal): poorly efficient
protection against histamine bronchospasm [11, 22]: total protection of all the animals
duration of protection against histamine bronchospasm [12]: 12 h
animals with total protection (more than 5 minutes) at 24 hours ([12]; 24 hours): 50%
IC50 [16]: > 10 µM
IC50 ([3]; pH 7.5, read-out: CI50 (the source's name)): > 10 µM
IC50 ([4]; rat whole brain, 2 nM [3H](+)3-PPP, pH 8, read-out: CI50 (the source's name)): > 10 µM
IC50 [5]: > 10 µM
IC50 [6, 18]: > 10 µM
IC50 [7, 19]: > 10 µM
IC50 [8, 20]: > 10 µM
IC50 [9]: > 10 µM
IC50 [10, 21]: > 10 µM
behavioural alteration (Irwin's test) ([2]; maximal tested dosage 400 mg/kg, at 3 hours only): a very weak passivity in half of the animals
clinical symptoms, search for maximal non-toxic dosage [17]: do not display any clinical symptom
alteration of rota-rod performance ([1]; oral, until highest tested dosage 100 mg/kg, 30 and 60 mn, versus vehicle): did not alter the performances

Source: patent publication US5461059A, “Derivatives of terbutylphenyl-1-amino-4-hydroxybutane their preparation processes and the pharmaceutical compositions containing them” (priority 1990, dated 1995)
